For `CCOC(=O)c1csc(/C=C/c2cccc([N+](=O)[O-])c2)n1`, the melting point was 151 to 153 °C.
`CCN(CC)CCNC(=O)Cn1cc(-c2ccccc2)c(-c2ccccc2)n1` showed a melting point of 80 to 83 °C.
`CS(=O)(=O)c1ccc(-n2nc(CCCNC(=O)Nc3cccc(C(F)(F)F)c3)cc2-c2ccccc2)cc1` gave a melting point of 150 to 152 °C.
`O=C1CCC(=C2CCC(C3CCCCC3)CC2)CC1` (stereo unspecified) gave a melting point of 81 to 81.5 °C.
Compound `COc1nc(N)nc(-c2ccccc2)c1-c1ccc(=O)n(C)n1` has a melting point of 218 to 220 °C.
With `O=C(O)CNc1ccc(Cl)c(Cl)c1` the melting point was 128 to 130 °C.
For `CC(C)(C)c1ccc(OCC(O)CN2CCC3(CC2)CSC2=C(O3)c3cc(Br)ccc3C(=O)C2=O)cc1` (stereo unspecified), the melting point was 150 to 152 °C.
With `O=C(O)CN1C(=O)C(O)N(Cc2cccc([N+](=O)[O-])c2)C1=O` (stereo unspecified) the melting point was 123 to 125 °C.
With `Nc1ccc(NNC(=O)c2ccccc2)cc1` the melting point was 134 to 136 °C.
In the case of `O=C(Nc1ccc2[nH]cnc2c1)C(=O)N1CCC(Cc2ccc(F)cc2)CC1`, the melting point is reported as 104 to 110 °C.
`CCCOC(=N)c1sc2ccccc2c1O` showed a melting point of 185 °C.
In the case of `ClC(Cl)=CCOc1cc(Cl)c(OCc2ccncc2)c(Cl)c1`, the melting point is reported as 74 °C.
Work on `O=C1c2cc(Br)sc2SCCN1CCCCCl` yielded a melting point of 81 to 89 °C.
In the case of `Cn1cc(-c2ccc(F)cc2)c(=O)c(-c2cccc(C(F)(F)F)c2)c1`, the melting point is reported as 133 to 134 °C.
In the case of `COc1ccc(-c2c(Cl)nc(Cl)nc2-c2ccccc2)cc1`, the melting point is reported as 132 to 134 °C.
For `CC(C)(C)OC(=O)N1CCc2c(n(CCO)c3c(Cl)ccc(Cl)c23)CC1`, the melting point was 156 to 158 °C.
In the case of `c1ccc(-c2[nH]c3ccccc3c2CCC2CCNCC2)cc1`, the melting point is reported as 183 °C.
With `OCc1ncccc1Cl` the melting point was 42 to 44 °C.
Work on `Cc1cccc2ncc3nnnn3c12` yielded a melting point of 166 to 168 °C.
With `Cc1cc(NC(=O)C2CSc3sccc3C2=O)no1` (stereo unspecified) the melting point was 143 to 146 °C.
`CN1C(=O)N(c2ccc(Cl)cc2)S[N+]1(C)[O-]` (stereo unspecified) showed a melting point of 83 to 85 °C.
Compound `CC(C)(C)OC(=O)CN1CCC(C)(N)C1=O` (stereo unspecified) has a melting point of 72 to 77 °C.
In the case of `CNS(=O)(=O)N1CC2(CCN(C(=O)Nc3nnc(-c4ccccc4)s3)CC2)c2ccccc21`, the melting point is reported as 230 to 231 °C.
In the case of `COC(=O)C(Oc1cc(OCc2ccsc2)ccc1C#N)c1ccccc1C(F)(F)F` (racemic), the melting point is reported as 104 to 108 °C.
For `O=C(Nc1ccc2c(c1)nc1n2CCC1)c1cc2nc(C(F)(F)F)ccc2n1Cc1ccncc1`, the melting point was 130 to 131 °C.
`CCOC(=O)c1sc(Oc2ccc(O)cc2)c2c1CCc1cnn(C)c1-2` showed a melting point of 245 to 246 °C.
For `S=C(Nc1cccc(Cl)c1)N1CCCSC1c1ccccc1` (stereo unspecified), the melting point was 132 to 135 °C.
Work on `Cc1[nH]c(-c2ccccc2F)c(C)c1C#N` yielded a melting point of 125 to 127 °C.
Compound `NCCNC(=O)CC(CO)c1c(Cl)cccc1Cl` (stereo unspecified) has a melting point of 127 to 129 °C.
Compound `c1c(N2CCCC2)nc(N2CCCC2)nc1N1CCN(CCN2CCNCC2)CC1` has a melting point of 148 to 149 °C.
For `CCOC(=O)CCc1sc(N)nc1-c1ccc(Cl)cc1`, the melting point was 160 to 161 °C.
`Cc1ccccc1[C@@H](CCC(=O)O)Oc1cc(OCc2cccnc2)ccc1[N+](=O)[O-]` showed a melting point of 117 to 119 °C.
`O=C1CC(c2cccc(-n3ccnn3)c2)=Nc2ccc(-c3ccccc3F)cc2N1` showed a melting point of 209 to 212 °C.
With `COc1ccc(Cc2cnc(NCCc3ccccc3Cl)nc2N2CCc3cc(OC)c(OC)cc3C2)cc1OC` the melting point was 140 to 141 °C.
`O=C(Nc1ccccc1S(=O)(=O)N1CCCCC1)N[C@@H](Cc1ccc(Nc2nccc3ccncc23)cc1)C(=O)O` gave a melting point of 179 °C.
Compound `O=C(O)c1ccc(Nc2nccc(-c3cccnc3)n2)cc1` has a melting point of 311 to 317 °C.
`Cc1cc(=O)c2c(OCCOc3ccccc3)cccc2o1` gave a melting point of 142 to 144 °C.
With `NS(=O)(=O)c1cc(C(=O)Nc2ccccc2)ccc1F` the melting point was 219 to 221 °C.
Work on `FC(F)(F)CSc1nc2cc(Cl)c(Cl)cc2[nH]1` yielded a melting point of 144 to 146 °C.
Compound `Cc1oc(-c2ccccc2)nc1COc1ccc(C=CC=O)cc1F` has a melting point of 133 to 134 °C.
Compound `Nc1cnc(-c2cc(Cl)cc(Cl)c2Cl)c(NC(=O)C2CC2)n1` has a melting point of 188 to 190 °C.
`COC(=O)c1cn2c(n1)COc1ccc(N)cc1-2` showed a melting point of 213 to 214 °C.
In the case of `CC(C)(C)c1cc(-c2nc3n(c2C#N)CCS3)cc(C(C)(C)C)c1O`, the melting point is reported as 207 to 208 °C.
Compound `CC(O)(C(=O)O)c1ccc2c(c1)[nH]c1ccc(Cl)cc12` (stereo unspecified) has a melting point of 218 to 220 °C.
Compound `COc1ccc(S(=O)(=O)CC(=O)C(C)C)cc1` has a melting point of 48 to 49.5 °C.
Compound `Cn1c(S)nnc1C(O)(c1ccc(Cl)cc1)c1cc2c3c(c1)c(-c1cccc(Cl)c1)cc(=O)n3CO2` (stereo unspecified) has a melting point of 193 °C.
`C=C1C=Cc2cc(C(=O)Nc3ccccc3)ccc2OC1` gave a melting point of 139 °C.
In the case of `CC1(C)CCC(=C[C@H]2[C@H](C(=O)O)C2(C)C)CC1` (relative stereo), the melting point is reported as 96 °C.
Work on `O=C(Cl)c1ccc(Oc2ccc(Oc3ccccc3)cc2)cc1` yielded a melting point of 85 to 89 °C.
For `O=C(NCCC1=CCCCC1)NCCC1=CCCCC1`, the melting point was 129 to 131 °C.
For `O=C(O)Cc1cc(-c2ccc(Cl)cc2)n(-c2ccc(OCc3ccc4ccccc4n3)cc2)n1`, the melting point was 228 to 230 °C.
For `CCOC(=O)C(=O)Nc1cc([N+](=O)[O-])c2ccccc2c1NC(=O)C(=O)OCC`, the melting point was 183 to 184 °C.
`CCCN=CNc1cccc(O)n1` gave a melting point of 178 to 179 °C.
In the case of `O=C(NC(=O)c1c(F)cccc1F)Nc1ccc(-c2ccc(Cl)cc2)cn1`, the melting point is reported as 229 to 234 °C.
For `O=C(O)CN1C(=O)[C@@H](N[C@@H](CCc2ccccc2)C(=O)O)COc2ccccc21`, the melting point was 127 to 130 °C.
Work on `Cn1c(Cc2cccc(C(F)(F)F)c2)nc2c(-c3cccc(C(=O)NCCO)c3)cccc21` yielded a melting point of 147 to 148 °C.
`OC(c1ccc2c(c1)CCN2)(C(F)F)C(F)(F)F` (stereo unspecified) gave a melting point of 129 to 132 °C.
Work on `CCOC(=O)c1cc(=O)c2c(OCC(C)(O)Oc3ccc(Br)cc3)cccc2o1` (stereo unspecified) yielded a melting point of 79 to 80 °C.
In the case of `C=C1C=CC2CC1C(Cc1ccc(OC)cc1)NC2=O` (stereo unspecified), the melting point is reported as 132 to 133 °C.
`Cc1cc(-c2nc3cccnn3c2-c2ccnc(NC(=O)CCS(C)(=O)=O)c2)ccc1F` gave a melting point of 227 to 228 °C.
With `CCOc1ccc(N)cc1OC` the melting point was 54 to 56 °C.
With `CCC(CN1CCCC1)C(C#N)(c1ccccc1)c1ccccc1` (stereo unspecified) the melting point was 90 °C.
Compound `CC(=O)SCCS(C)(=O)=O` has a melting point of 57 to 59 °C.
`Cc1c(NC(=O)c2ccc(OCC3CCOC3)cc2)ccc2cc(CNC(C)C)cnc12` (stereo unspecified) gave a melting point of 106 °C.
Work on `NC(=O)N1CC(Oc2cccc(Br)c2)C1` yielded a melting point of 188 to 189 °C.
Work on `NCCOc1cccc2c1ccn2S(=O)(=O)c1ccccc1` yielded a melting point of 71 to 73 °C.
In the case of `CC(C)(CO)COc1ccc(NC(=O)c2cc3ccccc3s2)cc1C#N`, the melting point is reported as 188 to 189 °C.
For `CCOC(=O)C1=C(c2ccccc2)Nc2n[nH]cc2C1c1ccccc1OC` (stereo unspecified), the melting point was 195 °C.
Compound `COc1cc(C2=C(c3c[nH]c4ncccc34)C(=O)NC2=O)cc(OC)c1OC` has a melting point of 162 °C.
With `Clc1nc2c([nH]1)CCCCC2` the melting point was 214 to 215 °C.
In the case of `Cc1cc(-c2cccnc2)n2ncc(C(=O)c3ccccc3)c2n1`, the melting point is reported as 196 to 198 °C.
For `COc1nc(-c2ccc(=O)n(C(C)C)n2)c(-c2ccccc2)nc1N`, the melting point was 211 to 214 °C.
For `CNC(=O)OCc1c(COC(=O)NC)c(-c2ccc(OC)cc2)n2c1Cc1ccccc1C2`, the melting point was 182 to 184 °C.
`c1cc(COc2ccc(OCc3ccc4ccccc4n3)cc2)cc(OCc2nnn[nH]2)c1` showed a melting point of 131 to 132 °C.
`N#Cc1cccc2c1CCC2=NO` showed a melting point of 200 to 202 °C.
`COC1(C)C(=O)C(c2ccccc2)=C1c1ccc(S(C)(=O)=O)cc1` (stereo unspecified) gave a melting point of 145 °C.
Work on `c1cnc2ccc(Cn3nnc4ccc(-c5ccc(N6CCCCC6)nc5)nc43)cc2c1` yielded a melting point of 133 to 135 °C.
Work on `CN1CCN(c2nc3sc4c(NCc5ccco5)ncnc4c3c3c2COC(C)(C)C3)CC1` yielded a melting point of 166 to 168 °C.
`CC(=O)[NH+]([O-])C[C@@H]1CN(c2ccc(N3CCOCC3)c(F)c2)C(=O)O1` (stereo partly specified) showed a melting point of 202 to 204 °C.
`CC(O)c1cc(S(N)(=O)=O)sc1Sc1ccc(O)cc1` (stereo unspecified) showed a melting point of 133 to 137 °C.
Compound `COc1ccc(-c2nc3cc(Cl)c(Cl)cc3n2C(=O)OCc2ccccc2)cc1[N+](=O)[O-]` has a melting point of 212 to 214 °C.
Compound `O=C(c1ccc(-n2cncn2)cc1)N1CCC(NCCc2ccc(Cl)cc2)CC1` has a melting point of 131 to 132 °C.
Work on `CCCn1ccc2c(NCCc3ccc(O)cc3)cccc2c1=O` yielded a melting point of 170 to 171 °C.
In the case of `Cc1ccc(Cn2nc(CCl)cc2-c2ccc(Cl)c(Cl)c2)cc1Cl`, the melting point is reported as 88 °C.
In the case of `CCOC(=O)[C@H](CCc1ccccc1)NC(=O)C1(NC(=O)[C@@H](SC(C)=O)C2CCOCC2)CCCC1`, the melting point is reported as 107 to 111 °C.
Compound `N#Cc1c(C(F)(F)F)nn(-c2c(Cl)cc(C(F)(F)F)cc2Cl)c1C(F)(F)F` has a melting point of 88 to 92 °C.
For `Cc1nc(N)c2nc(C)n(Cc3cc(-c4ccc(F)cc4)no3)c2c1C`, the melting point was 278 to 279 °C.
In the case of `CCN(C)c1nc(-c2cc(OC)c(OC)c(OC)c2)nc2sc(C#N)c(C)c12`, the melting point is reported as 163 to 164 °C.
`C#CC[C@H]1CC[C@H](CO)CC1` gave a melting point of 106 to 108 °C.
Compound `CCOc1cc(C2CSCCC2=O)ccc1OC` (stereo unspecified) has a melting point of 108 to 110 °C.
In the case of `Cn1ccc2ccc(/C=C/CN3CCN(C4c5ccccc5CCc5ncccc54)CC3)cc21` (stereo unspecified), the melting point is reported as 168 to 170 °C.
Compound `CCCc1nc2cnc3ccc([N+](=O)[O-])cc3c2s1` has a melting point of 228 to 230 °C.
Work on `O=C1CCCC(=O)C1C(=O)c1ccc(Cl)cc1Cl` yielded a melting point of 138 to 140 °C.
`N=C(Nc1ccccc1)Nc1ncccc1OCc1c(F)cccc1Cl` gave a melting point of 147 to 149 °C.
`Cc1c(-c2cnc(N(C)C)nc2)ssc1=S` showed a melting point of 135 °C.
With `CN(C)c1cc(NC(=O)c2ccccc2-c2ccc(C(F)(F)F)cc2)cnc1OCCCC1(C(=O)NCC(F)(F)F)c2ccccc2-c2ccccc21` the melting point was 140 to 141 °C.
`CNC(=O)ON=C1SCCN(C(=O)NC)C1=O` gave a melting point of 187 to 189 °C.
In the case of `N#CC1OC(=O)c2c(F)ccc(F)c21` (stereo unspecified), the melting point is reported as 87 to 89 °C.
Compound `NC(=O)Cc1cc(Oc2ccc3c(ccn3C(=O)Nc3ccc(N4CCN(C5CC5)CC4)c(C(F)(F)F)c3)c2)ncn1` has a melting point of 236 to 240 °C.
In the case of `Cc1nc2ccccc2n(-c2ccc(N(C)C)cc2)c1=O`, the melting point is reported as 230 to 231 °C.
Work on `O=C(NCc1ccc(Cl)cc1)c1cn2c3c(cc(CN4CCOCC4)cc3c1=O)CN(Cc1ccccc1)C2=O` yielded a melting point of 201 to 204 °C.

Source: a melting point compilation (Tetko et al.; mined from patent text by program, amines drawn as free bases though some values may be those of a salt)
